Measurements taken from patent US20220184091A1, “Methods of Treating Cancer with Chk1 Inhibitors” (Sierra Oncology, Inc., priority 2019, published 2022).

Experiments:
[1] = test system: PD-L1; assay: Flow cytometry of surface PD-L1 in SCLC cell lines; format: cell-based; conditions: all SCLC cell lines tested; 1 μM for 72 hours
Experimental: Data presented as mean±SD and p values by t-test ***p<0.001.
Single-cell suspensions were prepared and stained according to standard protocols for flow cytometry with antibodies. For intracellular staining, cells were fixed and permeabilized with BD Cytofix/Cytoperm (BD Biosciences). The data were acquired on a Fortessa or Calibur platform (BD Biosciences) and analyzed with FlowJo software (version 7.6; Tree Star). For analyzing the abundance and the function of CD4+ or CD8+ TILs, single-cell suspensions were prepared from tumors and spleen and stained; the staining of spleen cells was used as the reference of lymphocyte gating, then CD3+ cells were gated, and then CD4+ or CD8+ population was analyzed.

[2] = test system: 5637; assay: Cell viability, bladder cancer line 5637; format: cell-based
[3] = molecular target: T1, Chk1 S296 autophosphorylation (Homo sapiens, UniProt O14757); assay: Gemcitabine-induced Chk1 S296 autophosphorylation in HT29 tumor xenografts (western blotting); format: in vivo, mouse; conditions: mice bearing HT29 xenografts; oral, 24 hours after gemcitabine 100 mg/kg IV
T1 construct: mice bearing HT29 tumor xenografts were administered; endogenous in cells; host or cells: HT29 human colon cancer xenografts in mice
T1 sequence (O14757 whole entry): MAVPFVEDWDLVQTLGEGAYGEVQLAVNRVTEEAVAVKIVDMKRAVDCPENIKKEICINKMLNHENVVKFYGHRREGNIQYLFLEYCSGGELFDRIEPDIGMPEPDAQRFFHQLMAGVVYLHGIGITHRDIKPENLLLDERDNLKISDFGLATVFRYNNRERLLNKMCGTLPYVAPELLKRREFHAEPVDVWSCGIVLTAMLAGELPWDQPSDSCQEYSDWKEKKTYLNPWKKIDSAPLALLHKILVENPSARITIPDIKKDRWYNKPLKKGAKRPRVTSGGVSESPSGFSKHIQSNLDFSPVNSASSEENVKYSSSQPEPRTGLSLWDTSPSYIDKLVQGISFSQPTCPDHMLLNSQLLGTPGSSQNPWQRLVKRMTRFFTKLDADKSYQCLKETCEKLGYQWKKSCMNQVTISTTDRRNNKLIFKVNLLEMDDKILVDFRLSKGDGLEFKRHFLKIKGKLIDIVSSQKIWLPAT
Experimental: The effect of SRA737 on Gemcitabine induced Chk1 S296 autophosphorylation was assessed as described in Walton et al. (Oncotarget. 2016 Jan. 19; 7(3): 2329-2342), herein incorporated by reference for all it teaches. Briefly, mice bearing HT29 tumor xenografts were administered (i) vehicle control or (ii) gemcitabine (100 mg/kg in saline, IV) or (iii) a combination of SRA737 (12.5, 25, 50 or 100 mg/kg in DTPW, oral) and gemcitabine (100 mg/kg) with SRA737 administered 24 hours following gemcitabine administration (n=3 per time point per treatment). […] Exposure in the tumor was greater than 10-fold higher than in plasma. The circulating plasma concentration at this 24-hour timepoint corresponded to a free drug concentration of approximately 6 nM (2 ng/mL) based on plasma protein binding in mice of 94%.

[4] = test system: HGSOC PDX, OVCAR3, Ep-Myc, MOLM-13, TH-MYC, MDA-MB-231, Renca, LL/2 models; assay: In vivo efficacy of SRA737 as a single agent; design: species or system mouse
Experimental: A program of in vivo efficacy studies was performed to assess the activity of SRA737 in combination with genotoxic chemotherapy and targeted agents, and as monotherapy.
One of these models also carried a MYCN amplification. A fourth HGSOC PDX model with partial resistance to PARPi was also sensitive to high dose SRA737 monotherapy.

[5] = test system: SW1990; assay: Cell viability, pancreatic cancer line SW1990; format: cell-based; conditions: Homo sapiens
[6] = Phase 1 clinical study, SRA737 monotherapy dose escalation; conditions: human, in vivo
Experimental: A Phase 1 clinical trial was conducted in ‘all comers,’ i.e. no genetic selection was performed, to establish safety, tolerability and pharmacokinetics (“Dose Escalation Phase”). Cohorts consisting initially of a single subject received escalating doses of SRA737, starting in Cohort 1 with 20 mg/day administered orally on a continuous daily dosing schedule in 28 day cycles. the dose was escalated until the maximum tolerated dose (MTD) was identified.
In the Dose Escalation Phase, 18 subjects received SRA737 in 9 dose level cohorts, from 20 to 1300 mg QD; median treatment duration 62.5 days (range 1 to 226). […] Two of 3 subjects experienced DLTs at the 1300 mg once daily dose, each being an inability to receive 75% of the planned SRA737 dose due to GI intolerability, with the individual GI effects being low grade. […] A cohort receiving 500 mg twice daily was added to determine if a twice daily dosing schedule can improve GI tolerability, given the half-life of SRA737 is approximately 10 hours. One of 6 subjects experienced DLTs in the 500 mg twice daily cohort; this was an inability to receive 75% of the planned SRA737 dose due to grade 4 thrombocytopenia with grade 3 neutropenia and anemia.

- IC50 [2]: 2.1 µM
- SRA737 doses at which inhibition of pS296 Chk1 was observed [3]: greater than or equal to 12.5 mg/kg
- IC50 [5]: 0.7 µM
- doses that exceeded the level effective in preclinical models [6]: ≥ 300 mg
- T1/2 ([6]; 800 mg): 10.3 h
Compound: N#Cc1cnc(Nc2cc(NCC3CNCCO3)c(C(F)(F)F)cn2)cn1 (centres unmarked) [SRA737, 5-[[4-[[morpholin-2-yl]methylamino]-5-(trifluoromethyl)-2-pyridyl]amino]pyrazine-2-carbonitrile]
- cell surface PD-L1 expression [1]: significantly increased
- sensitivity to high dose monotherapy ([4]; fourth HGSOC PDX model with partial resistance to PARPi): sensitive
- antitumor activity as a single agent ([4]; several HGSOC PDX models with CCNE1 amplifications and TP53 mutations, data not shown): Significant antitumor activity
